Reference: US20170202792A1, “METHOD FOR TREATING TAU-ASSOCIATED DISEASES” (NATIONAL TAIWAN NORMAL UNIVERSITY, priority 2016, published 2017)

Assays:
[1] = system: phosphorylated tau protein; assay: Western blot of mouse hippocampal tissue, phosphorylated tau; format: in vivo; conditions: hyperglycemic 3×Tg-AD mice; 0.25 mg/kg i.p. daily vs DMSO
Experimental: Hyperglycemia was induced by streptozotocin (STZ) to accelerated Alzheimer's disease progression of 6-month-old male transgenic 3×Tg−AD mice. Half of the 3×Tg−AD mice (n=30) received STZ (100 mg/kg) intraperitoneal injection at days 1, 2, 8, and 9 respectively as the high blood glucose group (HBG); another half of the 3×Tg-AD mice (n=30) received sodium citrate (0.1 M) at the same time points as the normal blood glucose group (NBG). […] Both mouse body weight (BW) and blood glucose (BG) were monitored every week.
Mice were sacrificed after MWM and hippocampi were isolated for analyzing several protein expression levels by means of western blot. The protein of the hippocampi was quantified by BCA assay (Pierce), wherein 25 μg of protein was separated by SDS-PAGE and then transferred to PVDF film. Next, protein was blocked for reducing non-specific signals, and reacted with primary antibodies (GSK-3β, pS9-GSK-3β (non-activated), pT216-GSK-3β(activated), pS202Tau, pS396Tau, pT231Tau, HT7 (total Tau)), and secondary antibodies (anti-rabbit, anti-mouse IgG HRP-linked antibody; 1:10,000; Amersham Pharmacia Biotech). β-actin was used as the loading control, ECL kit was used to detect the antigen-antibody complex, and LAS-4000 (Fujifilm) was used for imaging and quantification.

[2] = system: mouse hippocampal primary culture cells; assay: Mouse hippocampal primary culture under tau toxicity (WT and GFX); format: cell-based; conditions: 10 nM WT and GFX; 0.1, 0.25, 0.5 μM compound (I), 12 hours
Experimental: The mouse hippocampal primary culture cells were isolated from the hippocampi of C57BL/6J mouse embryos at days 16-18. On days in vitro (DIV) 4 and 7, 2 μM of cytosine arabinoside was added to the culture medium for reducing the glial cell populations. On DIV 9, the cells were treated with 10 nM of Wortmannin (WT) and GF109203X (GFX) to induce tau hyperphosphorylation for mimicking an AD condition. 0, 0.1, 0.25, and 0.5 μM of compound (I) were then added to the cells at DIV 9. Cells were harvested 12 hours later for immunocytochemical staining with NeuN (for neuron) and MAP2 (for neurite morphology) antibodies.

[3] = system: p-tau (Ser202, Thr231 and Ser396); assay: Western blot of phosphorylated tau in tauRD-DsRed SH-SY5Y cells; format: cell-based, human; conditions: untreated = 100%
Experimental: Western blotting analysis was applied for examining the expressions of HSPB1 and GRP78, the method was as follows: total proteins were extracted using RIPA buffer, which comprised 50 mM Tris-HCl, 150 mM NaCl, 1 mM EDTA, 1 mM EGTA, 0.1% SDS, 0.5% sodium deoxycholate, 1% Triton X-100, and a protease inhibitor cocktail (Calbiochem). […] of total proteins were separated on 10% SDS-PAGE gels and blotted onto nitrocellulose membrane which were stained (4° C., overnight) with antibodies against DsRed (1:500; Santa Cruz), HSPB1 (1:500; Santa Cruz), and GRP78 (1:200; Santa Cruz). Next, immunoreactive bands were detected using horseradish peroxidase-conjugated goat anti-mouse, goat anti-rabbit, or donkey anti-goat IgG antibodies (1:5000; GeneTex) and chemiluminescent substrate (Millipore).
The methods of cell culture and western blot analysis are similar to that described above, except that the antibodies against GSK-3β (total and p-Ser9) (1:1000; Cell Signaling), total tau (1:500; Dako), p-tau (Ser202) (1:500; AnaSpec), p-tau (Thr231 and Ser396) (1:1000; Invitrogen), [3-actin (1:5000; Millipore), or GAPDH (1:2000; MDBio) were used herein for evaluation of the expression levels thereof in the cells.

[4] = system: transgenic flies overexpressing tau protein driven by Eq-gal4 (Eq>tau); assay: In vivo tau toxicity, notal bristle number of flies; set-up: species or system Drosophila; conditions: 25 μM and 50 μM of compound (I) vs DMSO
Experimental: 10 Eq-ga14 flies were treated with DMSO as the control group, and transgenic flies overexpressing tau protein driven by Eq-ga14 (Eq>tau) were treated with DMSO, 25 μM of compound (I), and 50 μM of compound (I) respectively in each group of 10 flies. The number of notal bristle of the flies was then calculated.

[5] = system: GFAP (astrocytes) and Iba1 (microglia); assay: Immunohistochemical staining of GFAP and Iba1 (neuro-inflammation in hippocampus); format: in vivo, mouse; conditions: 0.25 mg/kg i.p. daily 28 days
Experimental: Hyperglycemia was induced by streptozotocin (STZ) to accelerated Alzheimer's disease progression of 6-month-old male transgenic 3×Tg−AD mice. Half of the 3×Tg−AD mice (n=30) received STZ (100 mg/kg) intraperitoneal injection at days 1, 2, 8, and 9 respectively as the high blood glucose group (HBG); another half of the 3×Tg-AD mice (n=30) received sodium citrate (0.1 M) at the same time points as the normal blood glucose group (NBG). Then, HBG and NBG were divided into two groups respectively to give four groups such as NBG-compound (I), HBG-compound (I), NBG-DMSO, and HBG-DMSO with n=15 in each group; wherein 0.25 mg/kg of compound (I) (in 30 μL) were intraperitoneal injected into those mice of NBG-compound (I) and HBG-compound (I) groups daily since day 14 for 28 days, and 30 μL of DMSO solvent were intraperitoneal injected into those mice of NBG-DMSO and HBG-DMSO groups daily since day 14 for 28 days. Both mouse body weight (BW) and blood glucose (BG) were monitored every week.
After the brain tissue of the mice were fixed and dehydrated, the tissue was cryosectioned (30 μm). The cryosections were then washed with phosphate buffered saline (PBS) three times. After the optimal cutting temperature compound (OCT) was removed, 3% H2O2was used to remove the endogenous peroxidase, and the cryosection was blocked by the blocking solution for 1 hour to reduce non-specific antigen reactions. The primary antibodies GFAP (astrocytes) and Iba1 (microglia) were added and reacted for 12 hours, the secondary antibody (1:200 dilution in blocking solution, Vecter) was added and reacted for 1 hour, and then, the avidin-biotin complex was added and reacted for 1 hour. Finally, DAB-kit was used for coloring. All the stained sections were attached to the slides, dried, dehydrated, and mounted for imaging and quantification (Image Pro Plus) to evaluate the neuro-inflammation in mouse hippocampus. The quantification results were shown in Table 2, wherein ↑↑↑, ↓↓↓:p<0.001.

CCCCC/C=C\C/C=C\C/C=C\C/C=C\CCCC(=O)Nc1ccc(O)cc1 [compound (I), (5Z, 8Z, 11Z,14Z)-N-(4-Hydroxyphenyl)icosa-5 ,8 , 11,14-tetraen amide]
expression level of phosphorylated tau protein in hippocampus [1]: lower than that of the mice administrated with DMSO | neuronal survival and neurite length [2]: alleviate the phenomena of low neuronal survival rate and short neurite length | phosphorylated tau Ser202 level relative to untreated cells [3]: 32%-42% | phosphorylated tau Ser396 level relative to untreated cells [3]: 54%-78% | phosphorylated tau Thr231 level relative to untreated cells [3]: 37%-48% | number of notal bristle [4]: effectively reduced the notal bristle loss | GFAP staining quantification ([5]; HBG 3×Tg-AD mice): 15.63 ± 2.05↓↓↓ | Iba1 staining quantification ([5]; HBG 3×Tg-AD mice): 29.43 ± 0.78↓↓↓ | GFAP staining quantification ([5]; NBG 3×Tg-AD mice): 3.33 ± 1.02 | Iba1 staining quantification ([5]; NBG 3×Tg-AD mice): 34.25 ± 2.19
